Legend:
[1] = biological target: T1, 5-hydroxytryptamine receptor 1A (Rattus norvegicus, UniProt P19327)
T1 sequence (P19327 whole entry): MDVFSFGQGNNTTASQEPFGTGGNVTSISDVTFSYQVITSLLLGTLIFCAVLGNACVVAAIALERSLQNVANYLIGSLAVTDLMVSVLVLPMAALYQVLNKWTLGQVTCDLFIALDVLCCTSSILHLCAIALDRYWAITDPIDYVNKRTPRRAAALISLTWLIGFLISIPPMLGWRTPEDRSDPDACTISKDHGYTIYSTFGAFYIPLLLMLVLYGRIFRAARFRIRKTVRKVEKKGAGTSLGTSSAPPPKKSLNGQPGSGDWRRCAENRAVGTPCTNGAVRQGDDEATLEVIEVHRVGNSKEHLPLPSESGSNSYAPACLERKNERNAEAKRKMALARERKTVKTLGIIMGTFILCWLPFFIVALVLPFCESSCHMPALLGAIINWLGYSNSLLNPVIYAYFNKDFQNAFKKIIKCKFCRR

[2] = biological target: 5-hydroxytryptamine receptor 1B (Rattus norvegicus, UniProt P28564)
5-hydroxytryptamine receptor 1B, sequence (P28564 whole entry): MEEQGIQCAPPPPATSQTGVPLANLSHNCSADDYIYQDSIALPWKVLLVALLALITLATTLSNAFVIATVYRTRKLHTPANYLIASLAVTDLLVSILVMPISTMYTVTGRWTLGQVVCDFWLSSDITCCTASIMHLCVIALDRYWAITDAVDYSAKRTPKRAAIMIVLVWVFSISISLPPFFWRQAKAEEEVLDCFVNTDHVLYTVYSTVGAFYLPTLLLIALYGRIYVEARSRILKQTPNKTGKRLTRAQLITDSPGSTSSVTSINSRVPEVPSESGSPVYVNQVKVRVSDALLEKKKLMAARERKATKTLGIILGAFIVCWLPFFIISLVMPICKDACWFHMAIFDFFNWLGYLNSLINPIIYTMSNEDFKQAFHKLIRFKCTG

[3] = biological target: T2, 5-hydroxytryptamine receptor 2C (Rattus norvegicus, UniProt P08909)
T2 sequence (P08909 whole entry): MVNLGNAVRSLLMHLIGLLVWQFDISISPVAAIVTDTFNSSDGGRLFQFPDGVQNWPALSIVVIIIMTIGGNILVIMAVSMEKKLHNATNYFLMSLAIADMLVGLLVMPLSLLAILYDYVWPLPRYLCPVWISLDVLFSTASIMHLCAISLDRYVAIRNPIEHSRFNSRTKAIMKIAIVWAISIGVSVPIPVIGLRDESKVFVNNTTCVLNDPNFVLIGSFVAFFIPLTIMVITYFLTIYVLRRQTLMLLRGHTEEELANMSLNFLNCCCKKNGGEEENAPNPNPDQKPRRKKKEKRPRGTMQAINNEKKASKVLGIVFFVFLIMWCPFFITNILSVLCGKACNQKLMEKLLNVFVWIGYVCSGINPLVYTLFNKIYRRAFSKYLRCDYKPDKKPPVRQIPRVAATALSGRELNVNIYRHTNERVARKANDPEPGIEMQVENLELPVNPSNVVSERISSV

[4] = biological target: 5-hydroxytryptamine receptor 1E (Homo sapiens, UniProt P28566)
5-hydroxytryptamine receptor 1E, sequence (P28566 whole entry): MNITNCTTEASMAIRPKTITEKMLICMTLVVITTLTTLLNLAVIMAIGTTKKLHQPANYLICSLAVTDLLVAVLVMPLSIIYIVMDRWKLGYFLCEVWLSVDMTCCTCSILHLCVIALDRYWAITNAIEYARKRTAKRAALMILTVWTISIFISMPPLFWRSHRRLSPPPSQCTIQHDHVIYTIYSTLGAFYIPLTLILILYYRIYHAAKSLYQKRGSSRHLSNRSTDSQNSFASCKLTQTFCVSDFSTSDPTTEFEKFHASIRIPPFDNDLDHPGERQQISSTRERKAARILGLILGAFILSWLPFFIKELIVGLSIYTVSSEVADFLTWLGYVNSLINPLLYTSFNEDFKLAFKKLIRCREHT

[5] = biological target: Serotonin 2 (5-HT2) receptor (Rattus norvegicus, UniProt P30994+P08909+P14842)

Row | Structure (SMILES) | Ki [1] [nM] | Ki [2] [nM] | Ki [3] [nM] | Ki [4] [nM] | Ki [5] [nM]
1 | Cc1[nH]c2ccc(O)cc2c1CCN | 1200 | 520 | 650 | > 10000 | > 10000
2 | COc1ccc2[nH]c(C)c(CCN)c2c1 | 1300 | 800 | 690 | > 10000 | > 10000

Reference: ChEMBL document CHEMBL1124834, “5-HT1 and 5-HT2 binding profiles of the serotonergic agents alpha-methylserotonin and 2-methylserotonin” (J Med Chem, 1990)
